# Measurements from EP0837870B1, “SYNTHETIC MODIFICATION TO SPINOSYN COMPOUNDS” (Dow AgroSciences LLC, priority 1995, dated 1997).
# Tests used:
# Assay type in all cases: in vivo
# [1] = system: beet armyworm (Spodoptera exiqua); experiment: Activity against beet armyworm (BAW), sprayed diet cups with eggs
# Protocol: (§1) In conducting evaluations of insecticidal activity, each test compound was formulated as a 400 ppm solution, and this solution was then diluted with water to give lesser concentrations. The 400 ppm solution was prepared by combining 19.2 mL of .05% solution of Tween 20 (polyoxyethylene (20) sorbitan monolaurate) in water with a solution of 8 mg of the compound in .8 mL of acetone/EtOH (9/1).
# Activity against beet armyworm (Spodoptera exiqua) was evaluated as follows. The test is run using concentrations of 400 ppm and 50 ppm. A general purpose lepidoptera artificial diet was diluted to half strength with a 5% non nutritive agar. 8 mL of this diet material was dispensed into one ounce diet cups. One hour prior to treatment, 35 to 40 eggs were dispensed onto the diet surface. The cups were then sprayed with formulated material through a flat-fan nozzle. Treated cups were air dried prior to sealing with plastic caps. The cups were held for 6 days at room temperature. Activity was then rated based on the total number of live and dead larvae, and on the size of live larvae.
# [2] = system: tobacco budworm (Heliothis virescens); experiment: Activity against tobacco budworm (TBW), sprayed diet cups with eggs; details: for mortality at 400 µg/mL: Heliothis virescens, 144 h
# Protocol: as §1
# Activity against tobacco budworm (Heliothis virescens) was evaluated as follows. A general purpose lepidoptera artificial diet was diluted to half strength with a 5% non nutritive agar. 8 mL of this diet material was dispensed into each one ounce diet cup. One hour prior to treatment 18 to 20 eggs were dispensed onto the diet surface. The cups were then sprayed with formulated material through a flat-fan nozzle. […] Treated cups were air dried prior to sealing with plastic caps. The cups were held for 6 days at room temperature. Activity was then rated based on the total number of live and dead larvae, and on the size of live larvae.
# [3] = system: Phormia regina (blow fly); experiment: Blow fly larvae test, serum-saturated dental wick; details: 24 and 48 hours, which one is reported is not stated; for Percentage of LBF killed at 10 ppm: 10 ppm in bovine serum; for Percentage of LBF killed at 100 ppm: 100 ppm in bovine serum
# Protocol: (§2) The compound to be evaluated was dissolved in 1 part acetone/1 part ethanol to provide a stock solution of the compound at a concentration of 5,000 ppm; this solution was shaken for 15 minutes on a sonicator. Portions of the stock solution were placed in 15 ml test tubes, and portions of bovine serum were added to provide the desired dilution of the test compound. A dental wick was placed in each test tube and the serum allowed to saturate the wick.
# For the blow fly test, approximately 20 blow fly larvae were placed onto the top center of the saturated dental wick, and the test tube was plugged with cotton and incubated at 27°C and 70% humidity for 24 and 48 hours. Larval mortality counts were then made, and adjusted for any mortality in the vehicle control, to determine percent efficacy against blow fly.
# [4] = system: two spotted spider mite (Tetranychus urticae); experiment: Activity against two spotted spider mite (TSSM), sprayed infested squash plants; details: RATE 400 (ppm), three days after treatment; for mortality at 400 µg/mL: Tetranychus urticae, 72 h; for % MORTALITY: 4320 min
# Protocol: as §1
# Activity against cotton aphid (Aphis gossypii) and two spotted spider mite (Tetranychus urticae) was evaluated as follows. Golden crookneck squash plants were grown to the expanded cotyledon stage (about 6 to 8 days). The plants were infested with cotton aphids and two spotted spider mites 16 to 24 hours before application of the test material by transfer of infested foliage cut from a stock colony. Immediately prior to spray application of the test material the transfer foliage is removed from the squash plants. The test is run using concentrations of 400 ppm and 50 ppm. The plants are sprayed with test solution using an atomizing sprayer at 17 psi. Both surfaces of the leaves are covered until runoff, and then allowed to dry. Activity of each compound was determined three days after treatment. Activity was rated as a percent based on the mites/aphids present in plants sprayed with solvent alone.
# [5] = system: peanut root knot nematode (Meloidogyne arenaria); experiment: Activity against peanut root knot nematode, sprayed sand with cucumber seeds; details: NEMA, RATE 400 (ppm), 10 to 12 days
# Protocol: as §1
# Activity against peanut root knot nematode (Meloidogyne arenaria) was evaluated as follows. Five untreated cucumber seeds are placed into the bottom of a clear one ounce cup, 20 g of clean white sand is added, and the cups were sprayed while rotating on a pedestal allowing 1.0 mL of a 400 ppm solution to be deposited on the sand. To each cup was dispensed 2.5 to 3.0 mL of deionized water containing 300 to 500 nematodes. The cups were held for 10 to 12 days in an environmental growth chamber at a temperature of 76 to 85°F and ambient humidity of 50 to 60%. After 10 to 12 days the cups were evaluated by inverting the cup and observing nematode mortality and feeding damage to the cucumber plants.
# [6] = system: Stomoxys calcitrans (stable fly); experiment: Adult stable fly test, serum-saturated dental wick; details: 10 ppm in bovine serum, readings at 24 and 48 hours, which one is reported is not stated
# Protocol: as §2
# For the adult stable fly test, the saturated wick was placed on a filter paper in a petri dish, and approximately 10 chilled live, hungry stable flies were placed on the center of the dish bottom. The dish was covered and allowed to incubate at 27°C and 60% relative humidity for 48 hours. Mortality readings were made at each of 24 and 48 hours, and adjusted for any mortality in the vehicle control to determine percent efficacy against adult stable fly.
Compound,Percentage of LBF killed at 10 ppm [3] [%],Percentage of ASF killed at 10 ppm [6] [%],"% MORTALITY ([2]; RATE 400 (ppm), 6 days) [%]",further results
"5,6-Dihydro Spinosyn A 17-Psa [Example F20]",,,,"% MORTALITY ([1]; RATE 400 (ppm), 6 days): 100%"
"CC[C@H]1CCC[C@H](O)[C@@H](C)C(=O)C2=C[C@H]3[C@@H]4C[C@H](O[C@@H]5O[C@@H](C)[C@H](OC)[C@@H](OC)[C@H]5OC)C[C@H]4[C@@H](Br)[C@H](OCCO)[C@H]3[C@@H]2CC(=O)O1 [Example E1, (5R,6R)-5-(2-Hydroxyethoxy)-6-bromo Spinosyn A 17-Psa]",<50,,,"mortality at 400 µg/mL ([2]; RATE 400 (ppm), 6 days): 100%; mortality at 400 µg/mL [4]: 60%"
"CCC1CCCC(O)C(C)C(=O)C2=CC3C4CC(OC5OC(C)C(OC)C(OC)C5OC)CC4C4OC4C3C2CC(=O)O1 [Example E3, (5S,6R)-5,6-Epoxy Spinosyn A 17-Psa]",,,,% MORTALITY [5]: 100%
"CC[C@H]1CCC[C@H](O[C@H]2CC[C@H](N(C)C)[C@@H](C)O2)[C@@H](C)C(=O)C2=C[C@H]3[C@@H]4C[C@H](O[C@@H]5O[C@@H](C)[C@H](OC)[C@@H](OC)[C@H]5OC)C[C@H]4[C@@H](Br)[C@H](OC(C)=O)[C@H]3[C@@H]2CC(=O)O1 [Example F4b, (5R,6R)-5-Acetoxy-6-bromo-5,6-dihydro Spinosyn A]",< 50,60,,"mortality at 400 µg/mL ([2]; RATE 400 (ppm), 6 days): 100%"
"CC[C@H]1CCC[C@H](O[C@H]2CC[C@H](N(C)C)[C@@H](C)O2)[C@@H](C)C(=O)C2=C[C@H]3[C@@H]4C[C@H](O[C@@H]5O[C@@H](C)[C@H](OC)[C@@H](OC)[C@H]5OC)C[C@H]4CC[C@H]3[C@@H]2CC(=O)O1 [Example F6, 5,6-Dihydro Spinosyn A]",,100,,"% MORTALITY ([2]; RATE 64 (unit not given), 8640 min): 100%; Percentage of LBF killed at 100 ppm [3]: 100%; mortality at 400 µg/mL [4]: 100%"
"CCC1CCCC(OC2CCC(N(C)C)C(C)O2)C(C)C(=O)C2=CC3C4CC(OC5OC(C)C(OC)C(OC)C5OC)CC4[C@H]4O[C@H]4C3C2CC(=O)O1 (stereo partly drawn) [Example F7a, (5S,6R)-5,6-Epoxy Spinosyn A]",90,100,100,% MORTALITY [4]: 90%
"CCC1CCCC(OC2CCC(N(C)C)C(C)O2)C(C)C(=O)C2=CC3C4CC(OC5OC(C)C(OC)C(OC)C5OC)CC4[C@@H]4O[C@@H]4C3C2CC(=O)O1 (stereo partly drawn) [Example F7b, (5R,6S)-Epoxy Spinosyn A]",100,100,100,
"CCC1CCCC(OC2CCC(N(C)C)C(C)O2)C(C)C(=O)C2=CC3C4CC(OC5OC(C)C(OC)C(OC)C5OC)CC4[C@]4(C)O[C@@H]4C3C2CC(=O)O1 (stereo partly drawn) [Example F8b, (5R,6S)-Epoxy Spinosyn D]",,100,100,Percentage of LBF killed at 100 ppm [3]: 100%; % MORTALITY [4]: 90%
"(5R,6R)-5,6-dibromo-4''-keto Spinosyn A [Example F11a]",,,,% MORTALITY ([1]; RATE 56 (unit not given)): 80%
